Laboratory results from patent US10800806B2, “Sterol derivatives and use thereof for treating diseases involving transformed astrocyte cells or for treating malignant haemopathies” (BETA INNOV, priority 2012, dated 2020).

Tests used:
C6 cells = assay: Anti-GBM activity in vitro on cultures of C6 cells (cell counting, protein assay, MTT test); format: cell-based, rat
Procedure: (§1) Plastic flat-bottomed 96-well culture plates (NUNC, USA) treated for cell culture (Sigma-Aldrich, ref. 114754) are used; 1500 cells are seeded per well in 200 μl of culture medium. At the time of treatment, 100 μl of pure culture medium, 100 μl of culture medium containing ethanol, or liposomes, or 100 μl of culture medium containing the active ingredients are added per well; the final volume of the culture medium, after treatment, is therefore 300 μl for all the wells.
The cultures are incubated in a Sanyo incubator (Japan, model MCO-19AlC-UV) at 37° C. and in an atmosphere with 5% CO2 and saturated in humidity. The cells are observed with an inverted microscope (Nikon Eclipse TS100, Japan) and the photographs are taken with a camera (DIGITAL camera with c-mount; LABOVER, France). The culture hood is a microbiological safety hood MSC (thermo SCIENTIFIC, model HERA SAFE KS12, France).
The type C6 cell line was obtained by Benda et al. (16) from rat brain tumours, induced by N-methylnitrosourea. This cell type is used as “in vitro” and “in vivo” model for evaluating anti-GBM potential. The lines originate from the former Strasbourg Neurochemistry Centre (U44 INSERM and UPR 416 CNRS).
The culture medium is made up of 70% Minimum Essential Medium (MEM; (Fischer Scientifique, ref. 61100) and 30% Hanks solution (SIGMA, ref. H 9269). The following are added to the culture medium: foetal calf serum (FCS; Fischer Scientifique, ref. 10108165) at a final concentration of 5% (v/v), an antibiotic solution of ciprofloxacin hydrochloride 5 μg/mL (EUROMEDEX, ref. UC5074) and a solution of Fungizone 2.5 μg/mL (INVITROGEN, ref. 15290-026). The doubling time of this cell type is 17 h. • GBM lines of human origin
The active ingredients are either dissolved in absolute ethanol (AnalaR, NORMAPUR, VWR, France) or in the form of a liposomal solution, such as 10 μl of the stock solutions diluted in 990 μl and then added to the culture wells (200 μl of culture medium) giving concentrations of 30.0, 15.0, 7.5 and 3.3 μM (final volume of culture medium per well BI-GBM: 300 μl).
(§2) When the active ingredients are in ethanolic solution, the culture medium contains […] ethanol (v/v).
A method of cell counting on photographs was used.
(§3) For example, in the case of the cultures in 96-well plates and as a function of the magnification of the microscope used (objectives×10 or ×20, oculars×10), a photograph taken represents a field of view with a diameter equal to 1/5 of the diameter of a well. Therefore the total number of cells in a well is equal to […] the number of cells per photograph. This technique was compared with a standard technique (trypsinization of the cell layer, centrifugation of the cells, suspension of the cells in physiological saline solution and counting with a THOMA cell) in the case of the C6 cells. The results obtained are identical for both methods.
(§4) The culture medium is withdrawn from each well and 50 μl of Laemmli buffer (0.1 ml of Tris, 0.8 ml of glycerol, 1.6 mL of 10% SDS, 8 ml q.s.f ultrapure water) is added per well.
In control wells, 10 μl of a solution of bovine serum albumin range (crystallized BSA, Sigma) is added; the range is from 0 to 20 μg per well. The wells are then supplemented with 40 μl of Laemmli buffer. Finally, 200 μl of solution of BCA reagent is added (Pierce, USA; BCA Protein Assay Kit; ThemoScientific, France).
The culture plates are incubated for 30 min at 37° C. The optical density for each well is read and quantified by a plate reader (BioRad, USA, iMark Microplate reader 12222) at 570 nm.
(§5) This test makes it possible to detect the cellular respiration, especially the mitochondrial respiration. The stock solution of tetrazolium salt MTT (3-(4,5-dimethylthiazol-2-yl)-2,5-diphenyl tetrazolium bromide, Sigma-Aldrich, USA, ref. M5655) is prepared with 10 mg of MIT/ml of PBS buffer (phosphate-buffered saline, SIGMA, ref. D 1408). […]

[1] = system: human glioblastoma lines (GBM, line U-87 MG); assay: Anti-GBM activity in vitro on cultures of human U87-MG cells, cell aggregates (CA); format: cell-based
Procedure: as §1
The human glioblastoma lines (GBM, line U-87 MG) and their culture medium (Eagle's Minimum Essential Medium or EMEM) were obtained from ATCC (USA, ref. ATCC-HTB-14). Culture of the cells is started and maintained according to the recommendations of the ATCC. These lines are commonly used “in vitro” and “in vivo” for testing anti-GBM potential. The doubling time of these lines is 16 h.
The active ingredients are either dissolved in absolute ethanol (AnalaR, NORMAPUR, VWR, France) or in the form of a liposomal solution, such as 10 μl of the stock solutions diluted in 990 μl and then added to the culture wells ([…] medium per well BI-GBM: 300 μl).
as §2
Briefly, the compounds to be tested, namely the compounds according to the invention (active ingredients) or 7β-OHCH—C3-ester (a derivative of 7beta-hydroxysterol esterified in position 3 with an oleate group, the synthesis of which is described by Rakotoarivelo et al. (18) and used as control), soya phosphatidylcholine (Sigma) as well as cholesteryl-3-sulphate (Sigma) are taken from their stock solutions prepared from dichloroethane in the case of the active ingredients and the 7β-OHCH—C3-ester, a chloroform:methanol mixture (9:1, v/v) in the case of phosphatidylcholine and chloroform in the case of cholesteryl-3-sulphate. The molar ratios are 1 M/0.1 M/0.25 M for phosphatidylcholine, cholesteryl-3-sulphate and the 7β-OHCH—C3-ester and the active ingredients respectively.
After evaporation, a solution of PBS saline, without Ca^2+ and Mg^2+, pH7.2 (BioRad) is added to the dry compound. The volume of buffer and the mass of the products are adjusted so that 20 or 10 μl of liposomes added to 90 μl of culture medium gives the desired final concentrations. The liposomes are formed by the extrusion technique with Liposofast (Sodexim, SA Muizon, France). The solution is passed through polycarbonate filtration membranes (100 nm) 41 times. The liposomes are sterilized by filtration on […] Millipore membranes.
as §3, §4
as §5, with “1408). This solution is added directly to the culture medium in each well; the final concentration of MTT is 25 μg/ml. The plate is then incubated at 37° C. for at least 1 h.” for “1408).”

GBMs (rat line C6) = conditions: in vitro; cited from earlier work
[2] = system: immortalized (spontaneously transformed) rat astrocyte lines; conditions: in vitro; cited from earlier work
Solubility in ethanol = format: physicochemical; conditions: ethanolic form
[3] = system: CD133+ stem cells (U87-MG cultures); assay: Immunolabelling of the CD133+ stem cells with the A/B peroxidase system; format: cell-based, human; conditions: for CD133+ cells, percentage relative to the controls: 80 μM in liposomal form; for destruction of the CD133+ stem cells: liposomal form
Procedure: The anti-CD133 (poly, Abnova), anti-GFAP (poly, Sigma), anti-NFL (mono, Santa Cruz) and anti-fibroblast (ERTR7, Santa Cruz) primary antibodies are diluted to 1/100 in the case of the first three antibodies and to 1/50 in the case of the last.
The secondary antibodies corresponding to recognition of the primary antibodies are anti-rabbit antibodies coupled to peroxidase (goat, Sigma), anti-mouse coupled to Dylight 488 (sheep, Sigma), anti-mouse coupled to Dylight 488 (sheep, Sigma) and anti-rat coupled to FITC (rabbit, Sigma). The dilutions are 1/4000, 1/1000, 1/4000 and 1/400 respectively.
The cells are permeabilized for 5 min with 0.1% Triton X-100 (Sigma) in PBS (Fisher Scientific). The nonspecific sites are blocked with 2% BSA (Sigma) in PBS. Incubations are carried out for 1 h at ambient temperature, 48 h at 4° C., 24 h at 4° C. and 1 h at ambient temperature for the anti-CD133, anti-GFAP, anti-NFL and anti-Fibroblast antibodies respectively. Incubation with the secondary antibodies is carried out for 1 h at ambient temperature. The CD133 positive cells are detected by the DAB/H2O2 system (Sigma), and observed with an optical microscope.
The immunolabelling is carried out as described above (section II, A).

[4] = system: Neuroblastoma (line SH-SY5Y, ATCC-CRL-2266); assay: Activity in vitro on human neuroblastomas; format: cell-based; conditions: 22 μM once, concentrated liposomal form, 28 days of treatment
Procedure: They were obtained from the ATCC collection (Ref. ATCC-CRL-2266). The culture conditions are based on the recommendations in the ATCC information leaflet. • Chronic Myelomonocytic Leukaemia (CMML)
The neuroblastomas were treated with empty liposomes (controls) or with liposomes containing molecule 1.b or 2.b, 24 h after starting the culture. The cells are treated once with 22 μM of molecule 1.b or 22 μM of molecule 2.b. The liposomal form is concentrated.
For the control cells, the upper left hand photograph marked with the letter A was taken after 7 days of treatment; the lower left hand photograph marked with the letter B was taken after 28 days of treatment.
For the cells treated with the concentrated liposomal molecule 1.b, the photograph marked with the letter C (in the middle, at the top) was taken after 7 days of treatment and the photograph marked with the letter D (in the middle, at the bottom) after 28 days of treatment. For the cells treated with the concentrated liposomal molecule 2.b, the upper right hand photograph marked with the letter E was taken after 7 days of treatment.

## CC(C)CCCC(C)C1CCC2C3C(OC(=O)OC(C)(C)C)C=C4CC(OC(=O)C(C)NC(=O)CNC(=O)OCc5ccccc5)CCC4(C)C3CCC12C (centres unmarked) [Molecule 1.a, 7-((tert-butoxycarbonyl)oxy)-10,13-dimethyl-17-(6-methylheptan-2-yl)-2,3,4,7,8,9,10,11,12,13,14,15,16,17-tetradecahydro-1H-cyclopenta[a]phenanthren-3-yl 2-(2-(((benzyloxy)carbonyl)amino)acetamido)propanoate]
C6 cells; 15 μM, 19 days of treatment
  increase of the MTT/cell ratio relative to the control cultures: 20%
C6 cells; 15 μM, ethanolic form, 14 days of treatment
  reduction of the number of cells, the level of proteins and the MTT assay: 30%
C6 cells; 15 μM, ethanolic form, 19 days of treatment
  reduction of the number of cells, the level of proteins and the MTT assay: ≥ 97%
C6 cells; 7.5 and 3.3 μM, 19 days of treatment
  dose-dependence: dose-dependence is also observed
C6 cells; 15 μm, ethanol 3%
  Live residual cells: 3%
C6 cells; ethanolic form, after 19 days of treatment
  cytotoxicity: cytotoxic

## CC(C)CCC[C@@H](C)[C@H]1CC[C@H]2[C@@H]3[C@@H](O)C=C4C[C@@H](O)CC[C@]4(C)[C@H]3CC[C@]12C [7β-OHCH, 7β-Hydroxycholesterol]
[1]; control experiments at the very low levels formed from molecule 2.b
  death of GBMs: do not induce any death of GBMs
GBMs (rat line C6)
  cytotoxicity: remarkable cytotoxicity
[2]
  cytotoxicity: remarkable cytotoxicity

## CCCCCCCC/C=C\CCCCCCCC(=O)O[C@H]1CC[C@@]2(C)C(=C[C@H](O)[C@H]3[C@@H]4CC[C@H]([C@H](C)CCCC(C)C)[C@@]4(C)CC[C@@H]32)C1 [7β-OHCH—C3-ester]
[1]; ethanolic form
  action on the GBMs (CA): does not act
  anti-tumour activity: no anti-tumour activity is observed
[1]; liposomal form
  efficacy on increasing the dose: not better, or even decreases
  reduction of the level of proteins relative to the untreated control cells: 85%
[1]; liposomal form, 80 μM
  MTT/cell ratio: does not vary
  action on the GBMs (CA): only acts in liposomal form
[1]; liposomal form, medium replaced on the 13th day of treatment
  cell multiplication after replacing the medium with fresh drug-free medium: cell multiplication is observed
[1]; medium replaced on the 13th day, two days later
  increase in the MTT test after removal of the drug: 40%
Solubility in ethanol
  solubility in ethanol (concentration above which no longer soluble): ≤ 30 µM
[3]; 4 days of treatment
  CD133+ cells, percentage relative to the controls: 100%
[3]; 22 days of treatment
  CD133+ cells, percentage relative to the controls: 50%
[3]
  destruction of the CD133+ stem cells: This is not the case
[3]; listed as 7beta-OHCH-C3-ester
  destruction of the CD133+ stem cells: does not completely destroy the CD 133+

## CC(=O)OC1C=C2CC(OC(=O)C(C)NC(=O)CNC(=O)OCc3ccccc3)CCC2(C)C2CCC3(C)C(C(C)CCCC(C)C)CCC3C12 (centres unmarked) [Molecule 1.b, 7-acetoxy-10,13-dimethyl-17-(6-methylheptan-2-yl)-2,3,4,7,8,9,10,11,12,13,14,15,16,17-tetradecahydro-1H-cyclopenta[a]phenanthren-3-yl 2-(2-(((benzyloxy)carbonyl)amino)acetamido)propanoate]
[4]
  toxicity to neuroblastoma cells compared to the control cells: toxic to almost all the cells
